Our source for the Kd, fraction unbound and EC50 values is patent US20120115793A1, “PEPTIDOMIMETIC MACROCYCLES” (Alleron Therapeutics, Inc, priority 2008, published 2012).

Series [1] has as its system human serum proteins (HSA). Put plainly: Apparent affinity to human serum proteins (Kd*) by EC50 shift analysis. Type of series: in vitro ADME. An excerpt:
The measurement of apparent Kd values for serum protein by EC50 shift analysis provides a simple and rapid means of quantifying the propensity of experimental compounds to bind HSA and other serum proteins. A linear relationship exists between the apparent EC50 in the presence of serum protein (EC'50) and the amount of serum protein added to an in vitro assay. This relationship is defined by the binding affinity of the compound for serum proteins, expressed as Kd*. This term is an experimentally determined, apparent dissociation constant that may result from the cumulative effects of multiple, experimentally indistinguishable, binding events. The form of this relationship is presented here in Eq. 0.3, and its derivation can be found in Copeland et al, Biorg. Med. Chem. Lett. 2004, 14:2309-2312.
A significant proportion of serum protein binding can be ascribed to drug interactions with HSA, due to the very high concentration of this protein in serum (35-50 g/L or 530-758 μM). To calculate the Kd value for these compounds we have assumed that the shift in EC50 upon protein addition can be ascribed fully to the HSA present in the added serum, where P is 700 μM for 100% serum, P is 70 μM for 10% serum, etc. We further made the simplifying assumption that all of the compounds bind HSA with a 1:1 stoichiometry, so that the term n in Eq. (0.3) is fixed at unity. With these parameters in place we calculated the Kd* value for each stapled peptide from the changes in EC50 values with increasing serum (and serum protein) concentrations by nonlinear regression analysis of Eq. 0.3 using Mathematica 4.1 (Wolfram Research, Inc., www.wolfram.com). EC'50 values in whole blood are estimated by setting P in Eq. 0.3 to 700 μM [HSA].
The free fraction in blood is estimated using the following equation, as derived by Trainor, Expert Opin. Drug Disc., 2007, 2(1):51-64, where [HSA] total is set at 700 μM.
The following macrocycles derived from the human MAML peptide sequences were tested in cell viability assays (described above) with the MOLT-4 tumor cell line at a range of human serum protein concentrations to determine their apparent affinity to human serum proteins and the projected EC50s in whole human blood: […]

For the next series, the system named is Molt-4 cell line. Type of series: cell-based. To be noted: 48 h. How it is done:
Molt-4 cell line (ATCC catalog #CRL-1582) was grown in specific serum-supplemented media (RPMI-1640, Invitrogen catalog #72400) as recommended by ATCC. A day prior to the initiation of the study, cells were split at optimal cell density (2×10^5-5×10^5 cells/ml) to assure actively dividing cells. The next day, cells were washed twice in serum-free Opti-MEM media (Invitrogen, Catalog #51985) and cells were then plated at optimal cell density (10,000 cells/well) in 50 μl Opti-MEM media or Opti-MEM supplemented with 2%, 4% or 10% human serum (Bioreclamation, catalog #HMSRM) in 96-well white tissue culture plate (Nunc, catalog #136102).
For serum free experiment, peptidomimetic macrocycles were diluted from 2 mM stocks (100% DMSO) in sterile water to prepare 400 μM working solutions. The macrocycles and controls were diluted 10-fold first and then serially two-fold diluted in Opti-MEM in dosing plates to provide concentrations of between 1.2 and 40 μM. 50 μL of each dilution was then added to the appropriate wells of the test plate to achieve final concentrations of the polypeptides equal to between 0.6 to 20 μM. For studies using Opti-MEM supplemented with human serum (Bioreclamation, catalog #HMSRM), peptidomimetic macrocycles were diluted from 10 mM stocks (100% DMSO) in sterile water to prepare 2 mM working solutions. The peptide macrocycles and controls were diluted 10-fold first and then serially two-fold diluted in Opti-MEM in the presence of 2%, 4% or 10% of human serum to provide concentrations of the polypeptides equal to between 6.25 to 200 μM in dosing plates. 50 μL of each dilution was then added to the appropriate welts of the test plate to achieve final concentrations of the polypeptides equal to between 3.125 to 100 μM. Controls included wells without polypeptides containing the same concentration of DMSO as the wells containing the macrocycles, wells containing 0.1% Triton X-100 and wells containing no cells. Plates were incubated for 48 hours at 37° C. in humidified 5% CO2 atmosphere.
At the end of the incubation period, CellTiter-Glo assay was performed according to manufacturer's instructions (Promega, catalog #G7573) and luminescence was measured using Synergy HT Plate reader (BioTek).
The following macrocycles derived from the human MAML peptide sequences were tested in cell viability assays with the MOLT-4 tumor cell line: […]

Structures are written as SMILES. Read-outs that look alike come from different tables or passages of the source. Where a SMILES comes first, the peptide text is derived from it. Bridges are numbered along the chain shown (N, C = ends). [ ]: non-standard residue; d: D form. S5 = C=CCCC[C@](C)(N)C(=O)O

As to `CC[C@H](C)[C@H](NC(=O)[C@H](CCCNC(=N)N)NC(=O)[C@H](CCCNC(=N)N)NC(=O)[C@H](CCCNC(=N)N)NC(=O)[C@H](CC(C)C)NC(=O)[C@H](CCCNC(=N)N)NC(=O)[C@H](CCC(=O)O)NC(C)=O)C(=O)N[C@@]1(C)CCCC=CCCC[C@@](C)(C(=O)N[C@@H](Cc2c[nH]cn2)C(=O)N[C@@H](Cc2c[nH]cn2)C(=O)N[C@@H](CO)C(=O)N[C@H](C(N)=O)[C@@H](C)O)NC(=O)[C@H](CCCNC(=N)N)NC(=O)[C@H](CS)NC(=O)[C@H](CC(C)C)NC1=O` [Compound 1, Ac-ERLRRRI$LCR$HHST-NH2] (Ac-ERLRRRI[S5]LCR[S5]HHST-NH2; staple 8-12), the Kd in series [1] (human) was less than 100 nM. Further, the fraction unbound in series [1] (human, serum) was less than 0.001.
In general, EC50 refers to the midpoint of the concentration-response curve. Consider `CC[C@H](C)[C@H](NC(=O)[C@H](CCCNC(=N)N)NC(=O)[C@H](CCCNC(=N)N)NC(=O)[C@H](CCCNC(=N)N)NC(=O)[C@H](CC(C)C)NC(=O)[C@H](CCCNC(=N)N)NC(=O)[C@H](CCC(=O)O)NC(C)=O)C(=O)N[C@@]1(C)CCCC=CCCC[C@@](C)(C(=O)N[C@@H](Cc2c[nH]cn2)C(=O)N[C@@H](Cc2c[nH]cn2)C(=O)N[C@@H](CO)C(=O)N[C@H](C(N)=O)[C@@H](C)O)NC(=O)[C@H](CCCNC(=N)N)NC(=O)[C@H](C)NC(=O)[C@H](CC(C)C)NC1=O` [Compound 4, Ac-ERLRRRI$LAR$HHST-NH2] (Ac-ERLRRRI[S5]LAR[S5]HHST-NH2; staple 8-12), for which the Kd in series [1] (human) was less than 100 nM. In addition, in series [1] (human, serum), the fraction unbound is less than 0.001. Also, in the series with Molt-4 cell line, the EC50 is more than 20000 nM.
As for `CC[C@H](C)[C@H](NC(=O)[C@H](CCCNC(=N)N)NC(=O)[C@H](CCCNC(=N)N)NC(=O)[C@H](CCCNC(=N)N)NC(=O)[C@H](CC(C)C)NC(=O)[C@H](C)NC(C)=O)C(=O)N[C@@]1(C)CCCC=CCCC[C@@](C)(C(=O)N[C@@H](Cc2c[nH]cn2)C(=O)N[C@@H](Cc2c[nH]cn2)C(=O)N[C@@H](CO)C(=O)N[C@H](C(N)=O)[C@@H](C)O)NC(=O)[C@H](C)NC(=O)[C@H](CS)NC(=O)[C@H](CC(C)C)NC1=O` [Compound 19, Ac-ALRRRI$LCA$HHST-NH2] (Ac-ALRRRI[S5]LCA[S5]HHST-NH2; staple 7-11), the fraction unbound in series [1] (human, estimated with [HSA] total set at 700 μM, read-out: Free Fraction est. in blood) was 0.001. Further, the Kd in series [1] (nonlinear regression of EC50 shift with increasing human serum, 1:1 HSA binding assumed, 700 μM HSA for 100% serum, read-out: Serum Kd*) was 600 nM.
